In PubChem BioAssay (NCI) one finds TGI and GI50 data, which are given here for eight molecules.

Each structure is given as a SMILES string. Several values for one entry are separate records, joined by “and”; a condition that tells them apart may be missing. Equal values may be shown once.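 Exposure lasted 48 hours, with cells grown in 96-well plates and compounds tested at five concentrations. GI50: concentration for 50% inhibition of growth. TGI: concentration producing complete growth inhibition.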 Where only a bound is given, the exact number is not on record here.

Among the test systems are 786-0 renal; A498 renal; COLO 205 colon; NCI-H226 lung; NCI-H23 lung; OVCAR-5 ovarian; RPMI-8226 leukemia; SF-539 CNS; SK-OV-3 ovarian; UO-31 renal.
Holding throughout (experiment): NCI-60 cell line screen, 48 h

Consider `O=C(N/N=C/c1ccccc1O)N/N=C/c1ccccc1O`, for which the TGI in the experiment on 786-0 renal was above 100 µM; with A498 renal it was above 100 µM; in the experiment with COLO 205 colon, above 100000 nM; in the experiment with NCI-H226 lung, above 100 µM; in the experiment on NCI-H23 lung, above 100 µM; in the experiment on OVCAR-5 ovarian it was above 100 µM. Further, the TGI in the experiment on RPMI-8226 leukemia, in the experiment on SF-539 CNS, in the experiment on SK-OV-3 ovarian and with UO-31 renal was above 100 µM each time.
As for `CCOC(=O)Oc1c(OC)cc(C(=O)c2ccc(OC)c(O)c2OC)cc1OC`, the GI50 in the experiment on 786-0 renal was 475 nM; in the experiment on A498 renal it was 3190 nM; with COLO 205 colon it was 12500 nM; in the experiment on NCI-H226 lung, 4.56 µM; in the experiment with NCI-H23 lung, 2290 nM; in the experiment with OVCAR-5 ovarian it was 5.96 µM. The GI50 is 456 nM in the experiment on RPMI-8226 leukemia, 637 nM in the experiment with SF-539 CNS, 2880 nM with SK-OV-3 ovarian and 3.54 µM in the experiment on UO-31 renal. Also, the TGI with 786-0 renal was above 100 µM; in the experiment on A498 renal, 17 µM; with COLO 205 colon it was 63500 nM; in the experiment on NCI-H226 lung it was 40.7 µM; in the experiment on NCI-H23 lung it was above 100 µM; with OVCAR-5 ovarian, above 100 µM. Besides, the TGI in the experiment on RPMI-8226 leukemia was above 100 µM; in the experiment on SF-539 CNS, 5.83 µM; in the experiment on SK-OV-3 ovarian, above 100 µM; in the experiment on UO-31 renal, above 100 µM.
Turning to `COc1ccc(-c2noc(C(=O)O)c2-c2cc(OC)c(OC)c(OC)c2)cc1`, the GI50 in the experiment on 786-0 renal was 4850 nM; with A498 renal it was 1430 nM; in the experiment on COLO 205 colon, 1950 nM; in the experiment on NCI-H226 lung, above 100 µM; in the experiment with NCI-H23 lung, 9170 nM; with OVCAR-5 ovarian it was 5.82 µM. Besides, the GI50 is 4010 nM in the experiment on RPMI-8226 leukemia, 2450 nM in the experiment on SF-539 CNS, 3900 nM in the experiment on SK-OV-3 ovarian and 5.45 µM in the experiment with UO-31 renal. Besides, the TGI in the experiment on 786-0 renal was above 100 µM; in the experiment on A498 renal it was 7.02 µM; in the experiment on COLO 205 colon, 9490 nM; in the experiment with NCI-H226 lung it was above 100 µM; in the experiment with NCI-H23 lung, above 100 µM; in the experiment with OVCAR-5 ovarian it was above 100 µM. Also, the TGI with RPMI-8226 leukemia was above 100 µM; with SF-539 CNS, 20.5 µM; in the experiment with SK-OV-3 ovarian, above 100 µM; in the experiment on UO-31 renal, above 100 µM.
Consider `COC(=O)c1sc(C(=O)OC)c2c1CS(=O)C2`, for which the TGI is above 100 µM in the experiment on 786-0 renal; above 100 µM in the experiment on A498 renal; above 100000 nM in the experiment with COLO 205 colon; above 100 µM in the experiment with NCI-H226 lung; above 100 µM with NCI-H23 lung; above 100 µM in the experiment with OVCAR-5 ovarian. Moreover, the TGI in the experiment on RPMI-8226 leukemia, with SF-539 CNS, in the experiment with SK-OV-3 ovarian and with UO-31 renal was above 100 µM throughout.
On to `C=CCc1c(Cl)nc(Cl)nc1Cl`, for which the TGI with 786-0 renal is 0.368 µM; in the experiment on A498 renal, 3.49 µM; with COLO 205 colon it was 696 nM; with NCI-H226 lung, 1.69 µM; in the experiment with NCI-H23 lung it was 1.81 µM; in the experiment with OVCAR-5 ovarian it was 2.02 µM. Moreover, the TGI was above 100 µM with RPMI-8226 leukemia, 3.78 µM in the experiment on SF-539 CNS, 9.12 µM with SK-OV-3 ovarian and 0.165 µM with UO-31 renal.
As for `CC1CC(C)CC(C)C(O)/C(C#N)=C/C=C/CC(C2CCCC2C(=O)O)OC(=O)CC(O)C(C)C1` (centres undefined), the GI50 in the experiment on 786-0 renal was 21.3 nM; in the experiment on A498 renal it was 15.2 nM; in the experiment on COLO 205 colon, 56.5 nM; in the experiment on NCI-H226 lung, 0.031 µM; with NCI-H23 lung, 18.3 nM and < 10.5 nM; with OVCAR-5 ovarian, 0.023 µM. Moreover, the GI50 in the experiment on RPMI-8226 leukemia was 4.86 nM; in the experiment with SF-539 CNS, 5.1 nM; in the experiment on SK-OV-3 ovarian it was 36.9 nM; in the experiment on UO-31 renal it was 0.027 µM. For the same molecule, the TGI with 786-0 renal is 0.171 µM and 0.0536 µM; with A498 renal, 0.0482 µM and 0.0186 µM; with COLO 205 colon, 270 nM and 412 nM; in the experiment with NCI-H226 lung it was 0.0951 µM and 0.029 µM; in the experiment on NCI-H23 lung it was 0.0919 µM and 0.0221 µM; in the experiment on OVCAR-5 ovarian, 0.282 µM and < 0.0365 µM. Also, the TGI with RPMI-8226 leukemia is 0.0315 µM and < 0.145 µM; in the experiment with SF-539 CNS, 0.0213 µM and 0.0146 µM; in the experiment with SK-OV-3 ovarian it was 0.217 µM and 0.0917 µM; in the experiment with UO-31 renal, 0.15 µM and 0.0217 µM.
Take `C=C1CCC2C3(C)COC(C)(C)OC3CCC2(C)C1C/C=C1/C(=O)OCC1OC(C)=O` (centres undefined): the GI50 is 2890 nM with 786-0 renal; 16600 nM in the experiment with A498 renal; 1720 nM with COLO 205 colon; 12.8 µM in the experiment on NCI-H226 lung; 4340 nM in the experiment on NCI-H23 lung; 3.78 µM in the experiment with OVCAR-5 ovarian. Moreover, the GI50 is 2240 nM in the experiment on RPMI-8226 leukemia, 1720 nM with SF-539 CNS, 12500 nM with SK-OV-3 ovarian and 6.27 µM with UO-31 renal. The TGI in the experiment with 786-0 renal amounted to 8.05 µM; in the experiment on A498 renal, 31.5 µM; in the experiment with COLO 205 colon, 3430 nM; in the experiment with NCI-H226 lung, 33.7 µM; in the experiment with NCI-H23 lung, 16.1 µM; in the experiment with OVCAR-5 ovarian it was 11.2 µM. The TGI in the experiment on RPMI-8226 leukemia was found to be 7.49 µM; in the experiment on SF-539 CNS, 3.3 µM; in the experiment on SK-OV-3 ovarian it was 25.7 µM; with UO-31 renal, 15.5 µM.
As to `CCN1C(=O)N(CC)C2C1NN=c1s/c(=C\c3ccc(Cl)cc3Cl)c(=O)n12` (centres undefined), the GI50 was 50.9 nM in the experiment on 786-0 renal; 19.4 nM in the experiment on A498 renal; 26.3 nM with COLO 205 colon; 0.129 µM with NCI-H226 lung; 50.5 nM in the experiment on NCI-H23 lung; 0.0547 µM in the experiment on OVCAR-5 ovarian. For the same molecule, the GI50 in the experiment with RPMI-8226 leukemia was 39.1 nM; in the experiment on SF-539 CNS, 24.1 nM; with SK-OV-3 ovarian it was 44.8 nM; with UO-31 renal, 0.167 µM. Also, the TGI in the experiment with 786-0 renal is above 48.8 µM; in the experiment on A498 renal it was 0.0667 µM; in the experiment with COLO 205 colon, 74.8 nM; in the experiment on NCI-H23 lung, above 100 µM; in the experiment on OVCAR-5 ovarian it was above 81.5 µM; in the experiment with RPMI-8226 leukemia, 7.25 µM. Also, the TGI was 0.0698 µM in the experiment on SF-539 CNS, above 100 µM with SK-OV-3 ovarian and 60.4 µM with UO-31 renal.
